Results reported in US20230286973A1, “PROTEIN SECRETION INHIBITORS” (KEZAR LIFE SCIENCES, priority 2020, published 2023).

Tests used:
[1] = system: IL-2-FL/Gaussia Luciferase; test: Dox Induced IL2-FL-Gluc Assay; format: cell-based; settings: for IC50: 24 hr Dox induction, 293FRT/TO cells, mean, read-out: 24 hr Dox Inducible IL2FLGluc 293FRT/TO: Mean IC50; for 24 hr Dox Inducible IL2FLGluc 293FRT/TO: IL2/PD1: ratio of IL2FLGluc IC50 to PD1ssGluc IC50, '<=>' given where both are I.A.
Summary of the method: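 Stable Flp-In 293 T-REx line, Tet-regulated IL-2 (aa 1-153)–Gaussia luciferase fusion; hygromycin/blasticidin selected. Plated day -1; compound + doxycycline added next day; 37° C, 5% CO2.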

[2] = system: PD1-ss+10aa/Gaussia Luciferase; test: Dox-Induced PD1-ss-Gluc Assay; format: cell-based; settings: 24 hr Dox induction; 293FRT/TO cells; mean; read-out: 24 hr Dox Inducible PD1ssGluc 293FRT/TO: Mean IC50
Summary of the method: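 The cell line was made by transfecting Flp-In 293 T-REx cells with a PD1 signal sequence+10aa–Gaussia luciferase fusion under T-REx control and selecting with hygromycin and blasticidin. Cells were seeded, and next day compound plus doxycycline was added at 37 °C, 5% CO2.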

[3] = system: multiple myeloma cell line U266B1; test: U266 Cell Viability Assay; format: cell-based, human; settings: Homo sapiens, U-266, 48 h, U266B1 cells, Celltiter-Glo
Summary of the method: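 Luminescent ATP read-out (CellTiter-Glo) after 48 h compound exposure at 37° C., 5% CO2; cells maintained in RPMI 1640/10% FBS/2 mM glutamine/pen-strep, compounds diluted in DMSO/media.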

[4] = system: HER3-ss+4aa/Gaussia Luciferase; test: Dox-Induced Her3-ss-Gluc Assay; format: cell-based; settings: 24 hr Dox induction; 293FRT/TO cells; mean; read-out: 24 hr Dox Inducible Her3(ss + 4)Gluc 293FRT/TO: Mean IC50
Summary of the method: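 Flp-In 293 T-REx cells, stable HER3-ss+4aa/Gaussia luciferase insert, hygromycin/blasticidin selected; plated day before; compound in DMSO/media + doxycycline; 37° C., 5% CO2.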

[5] = Liver Microsome Stability Assay (monkey); settings: monkey liver microsomes, with NADPH, 1.0 uM compound
Procedure: (§1) Stability of a compound was assessed in the presence of liver microsomes from various sources—mouse, rat, monkey and human liver microsomes. 1.0 uM compound, 0.4% DMSO in 0.1 M Potassium Phosphate with 1.0 mg/mL liver microsomes, were incubated at 37° C. with or without 1 mM NADPH. The samples were quenched at 0, and 30 minutes.

[6] = system: multiple myeloma cell line NCI-H929; test: H929 Cell Viability Assay; format: cell-based, human; settings: Homo sapiens, NCI-H929, 48 h, NCI-H929 cells, Celltiter-Glo
Summary of the method: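 Cells in RPMI 1640/10% FBS; compound dilutions in DMSO/media; 48 h, 37° C, 5% CO2; CellTiter-Glo luciferase readout for viability.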

[7] = Liver Microsome Stability Assay (human); settings: human liver microsomes, with NADPH, 1.0 uM compound
Procedure: as §1

[8] = Liver Microsome Stability Assay (mouse); settings: mouse liver microsomes, with NADPH, 1.0 uM compound
Procedure: as §1

[9] = Liver Microsome Stability Assay (rat); settings: rat liver microsomes, with NADPH, 1.0 uM compound
Procedure: as §1

[10] = system: TNFα-FL/Gaussia Luciferase; test: Dox Induced TNFα-FL-Gluc Assay; format: cell-based; settings: for IC50: 24 hr Dox induction, 293FRT/TO cells, mean, read-out: 24 hr Dox Inducible TNFaFLGluc 293FRT/TO: Mean IC50; for 24 hr Dox Inducible TNFaFLGluc 293FRT/TO: TNF/PD1: ratio of TNFaFLGluc IC50 to PD1ssGluc IC50, '<=>' given where both are I.A.
Summary of the method: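 Cell line: stable Flp-In 293 T-REx, TNFα-FL(1-233)-Gaussia luciferase fusion, T-REx-inducible. Plated day -1; compounds in DMSO/media + doxycycline, 37 °C, 5% CO2. Undefined stereocentres = mixture tested.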

SMILES | IC50 [1] | 24 hr Dox Inducible IL2FLGluc 293FRT/TO: IL2/PD1 [1] | IC50 [2] | EC50 [3] | IC50 [4] | Liver Microsome Stability (Multiple Species): Monkey - % Remaining after 30 min w/NADPH [5] | EC50 [6] | Liver Microsome Stability (Multiple Species): Human - % Remaining after 30 min w/NADPH [7] | Liver Microsome Stability (Multiple Species): Mouse - % Remaining after 30 min w/NADPH [8] | Liver Microsome Stability (Multiple Species): Rat - % Remaining after 30 min w/NADPH [9] | IC50 [10] | 24 hr Dox Inducible TNFaFLGluc 293FRT/TO: TNF/PD1 [10]
O=C(Nc1nc([C@H]2CCCN2c2ccccc2)cs1)c1cccn1Cc1ccnnc1 [Compound C102, (R)-N-(4-(1-phenylpyrrolidin-2-yl)thiazol-2-yl)-1-(pyridazin-4-ylmethyl)-1H-pyrrole-2-carboxamide] | 97.5 nM | 2.2 | 44.2 nM | 14.6 µM | 109 nM | 0.39% | 3.98 µM | 0.93% | 6.44% | 2.73% | 984 nM | 22.2
CC(=O)N1CCC(Oc2ccc(N3CCC[C@@H]3c3csc(NC(=O)c4cccn4CC4CCOCC4)n3)cc2)CC1 [Compound C103, (R)-N-(4-(1-(4-((1-acetylpiperidin-4-yl)oxy)phenyl)pyrrolidin-2-yl)thiazol-2-yl)-1-((tetrahydro-2H-pyran-4-yl)methyl)-1H-pyrrole-2-carboxamide] | 1160 nM | 1.7 | 665 nM | > 25 µM | 1340 nM | 12.9% | 14 µM | 34.8% | 54.8% | 30% | 4990 nM | 7.5
CC(=O)NCc1ccc(N2CCC[C@@H]2c2csc(NC(=O)c3cccn3CC3CCOCC3)n2)cc1 [Compound C104, (R)-N-(4-(1-(4-(acetamidomethyl)phenyl)pyrrolidin-2-yl)thiazol-2-yl)-1-((tetrahydro-2H-pyran-4-yl)methyl)-1H-pyrrole-2-carboxamide] | 412 nM | 2.9 | 143 nM | > 25 µM | 350 nM | 0.09% | 6.16 µM | 3.01% | 4.94% | 0.82% | 2410 nM | 16.8
NC(=O)c1ccc(N2CCC[C@@H]2c2csc(NC(=O)c3cccn3CC3CCOCC3)n2)cc1 [Compound C105, (R)-N-(4-(1-(4-carbamoylphenyl)pyrrolidin-2-yl)thiazol-2-yl)-1-((tetrahydro-2H-pyran-4-yl)methyl)-1H-pyrrole-2-carboxamide] | 157 nM | 4.4 | 36 nM | > 25 µM | 107 nM | 0.67% | 3.65 µM | 0.19% | 1.99% | 1.71% | 900 nM | 25
N#CC1CC(Cn2cccc2C(=O)Nc2nc([C@H]3CCCN3c3ccccc3)cs2)C1 (stereo partly drawn) [Compound C106, (R)-1-((3-cyanocyclobutyl)methyl)-N-(4-(1-phenylpyrrolidin-2-yl)thiazol-2-yl)-1H-pyrrole-2-carboxamide] | 2640 nM | 2.4 | 1090 nM | > 25 µM | 1430 nM | 1.96% | > 25 µM | 19% | 28.8% | 3.54% | 19400 nM | 17.7
